From patent publication US20220062240A1, “METHODS OF TREATING CANCER USING A CLK INHIBITOR” (BioSplice Therapeutics, Inc., priority 2018, published 2022)
Like-named read-outs stand apart in the source and are kept apart here.

Key:
CLK2 = target: T1, CLK2 (Homo sapiens, UniProt P49760); assay: CLK2 kinase activity assay (Z-lyte, Ser/Thr 6 peptide); type: biochemical; conditions: recombinant CLK2 kinase, ATP 60 μM; read-out: EC50
T1 construct: purchased Thermo Fisher (Life Technologies), Z'-LYTE Kinase Assay Kits
T1 sequence (P49760 whole entry): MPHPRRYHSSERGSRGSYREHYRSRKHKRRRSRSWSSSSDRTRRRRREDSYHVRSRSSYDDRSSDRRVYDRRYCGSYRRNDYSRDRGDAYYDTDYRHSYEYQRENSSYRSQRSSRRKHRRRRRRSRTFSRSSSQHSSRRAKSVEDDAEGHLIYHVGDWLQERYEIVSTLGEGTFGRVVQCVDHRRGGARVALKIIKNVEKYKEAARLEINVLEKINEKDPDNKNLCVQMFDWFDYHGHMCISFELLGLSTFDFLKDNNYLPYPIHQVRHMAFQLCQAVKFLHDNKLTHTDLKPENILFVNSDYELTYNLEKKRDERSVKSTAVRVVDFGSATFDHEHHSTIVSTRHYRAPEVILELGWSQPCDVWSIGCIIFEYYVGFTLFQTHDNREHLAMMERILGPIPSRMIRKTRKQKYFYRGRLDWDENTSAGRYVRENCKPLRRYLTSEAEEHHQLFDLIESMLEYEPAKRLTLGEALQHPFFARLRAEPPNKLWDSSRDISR
Method: All reactions were performed in duplicate.

BT-549 = assay: CellTiter-Glo Viability Assay, breast cancer; type: cell-based; conditions: Homo sapiens, 96 h; BT-549, breast cancer, four days; read-out: EC50
CAMA1 = assay: CellTiter-Glo Viability Assay, breast cancer; type: cell-based; conditions: Homo sapiens, CAMA-1, 96 h; CAMA1, breast cancer, four days; read-out: EC50
DU4475 = assay: CellTiter-Glo Viability Assay, breast cancer; type: cell-based; conditions: Homo sapiens, DU-4475, 96 h; DU4475, breast cancer, four days; read-out: EC50
HCC1599 = assay: CellTiter-Glo Viability Assay, breast cancer; type: cell-based; conditions: Homo sapiens, 96 h; HCC1599, breast cancer, four days; read-out: EC50
MCF7 = assay: CellTiter-Glo Viability Assay, breast cancer; type: cell-based; conditions: Homo sapiens, 96 h; MCF7, breast cancer, four days; read-out: EC50
MDA-MB-231-Luc = assay: CellTiter-Glo Viability Assay, breast cancer; type: cell-based; conditions: Homo sapiens, 96 h; MDA-MB-231-Luc, breast cancer, four days; read-out: EC50
T47D = assay: CellTiter-Glo Viability Assay, breast cancer; type: cell-based; conditions: Homo sapiens, 96 h, breast cancer, four days, read-out: EC50
ZR-75-1 = assay: CellTiter-Glo Viability Assay, breast cancer; type: cell-based; conditions: Homo sapiens, 96 h; ZR-75-1, breast cancer, four days; read-out: EC50
all 50 cell lines = assay: CellTiter-Glo Viability Assay, average across all cell lines; type: cell-based; conditions: Homo sapiens; across all 50 cell lines; read-out: average EC50 for inhibition of cancer cell proliferation
How it was run: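 4-day proliferation, 37° C/5% CO2; 300-3,000 cells/well; compound in duplicate vs DMSO controls. Panel: breast, colorectal, heme/lymphoid, liver, lung, ovarian, pancreatic, prostate lines. Read-out: CellTiter-Glo ATP luminescence, EC50 from dose-response.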

[1] = test system: colorectal cancer (6 cell lines); assay: CellTiter-Glo Viability Assay, colorectal cancer; type: cell-based; conditions: Homo sapiens, inhibition of cancer cell proliferation
[2] = test system: haematopoietic & lymphoid tumors (13 cell lines); assay: CellTiter-Glo Viability Assay, haematopoietic & lymphoid tumors; type: cell-based; conditions: Homo sapiens, inhibition of cancer cell proliferation
[3] = test system: liver cancer (3 cell lines); assay: CellTiter-Glo Viability Assay, liver cancer; type: cell-based; conditions: Homo sapiens, inhibition of cancer cell proliferation
[4] = test system: lung cancer (4 cell lines); assay: CellTiter-Glo Viability Assay, lung cancer; type: cell-based; conditions: Homo sapiens, inhibition of cancer cell proliferation
[5] = test system: ovarian cancer (4 cell lines); assay: CellTiter-Glo Viability Assay, ovarian cancer; type: cell-based; conditions: Homo sapiens, inhibition of cancer cell proliferation
[6] = test system: pancreatic cancer (8 cell lines); assay: CellTiter-Glo Viability Assay, pancreatic cancer; type: cell-based; conditions: Homo sapiens, inhibition of cancer cell proliferation
[7] = test system: prostate cancer (5 cell lines); assay: CellTiter-Glo Viability Assay, prostate cancer; type: cell-based; conditions: Homo sapiens
CLK3 = CLK3 (Homo sapiens, UniProt P49761); assay: CLK3 kinase activity assay (Z-lyte, Ser/Thr 18 peptide)
Chain of CLK3 (P49761 whole entry): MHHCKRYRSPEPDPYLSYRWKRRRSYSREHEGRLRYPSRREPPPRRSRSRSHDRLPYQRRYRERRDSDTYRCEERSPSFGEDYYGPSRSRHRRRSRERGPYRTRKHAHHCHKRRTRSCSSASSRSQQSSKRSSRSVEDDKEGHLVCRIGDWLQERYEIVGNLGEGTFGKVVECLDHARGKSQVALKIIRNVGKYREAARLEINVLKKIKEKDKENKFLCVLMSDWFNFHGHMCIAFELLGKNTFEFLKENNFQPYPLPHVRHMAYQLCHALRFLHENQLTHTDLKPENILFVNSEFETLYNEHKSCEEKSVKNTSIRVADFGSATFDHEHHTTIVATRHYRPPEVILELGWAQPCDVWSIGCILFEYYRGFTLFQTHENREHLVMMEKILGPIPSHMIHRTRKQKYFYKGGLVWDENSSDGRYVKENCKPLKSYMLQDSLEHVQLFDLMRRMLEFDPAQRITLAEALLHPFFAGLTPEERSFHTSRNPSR

- EC50 (CLK2): 1.3 nM
- EC50 (BT-549): 409 nM
- EC50 (CAMA1): 210 nM
- EC50 (DU4475): 77 nM
- EC50 (HCC1599): 75 nM
- EC50 (MCF7): 1960 nM
- EC50 (MDA-MB-231-Luc): 407 nM
- EC50 (T47D): 468 nM
- EC50 (ZR-75-1): 358 nM
- EC50 ([1]; HCT-116, HCT116 cell line, read-out: Colorectal cancer, EC50 (μM) HCT116): 0.402 µM
- EC50 ([1]; HT-29, HT29 cell line, read-out: Colorectal cancer, EC50 (μM) HT29): 1.43 µM
- EC50 ([1]; SW-620, SW620 cell line, read-out: Colorectal cancer, EC50 (μM) SW620): 0.164 µM
- EC50 ([1]; DLD-1 cell line, read-out: Colorectal cancer, EC50 (μM) DLD-1): 0.658 µM
- EC50 ([1]; SW48 cell line, read-out: Colorectal cancer, EC50 (μM) SW48): 0.164 µM
- EC50 ([1]; SW480 cell line, read-out: Colorectal cancer, EC50 (μM) SW480): 0.22 µM
- EC50 ([2]; DND41, DND-41 cell line, read-out: Haematopoietic & Lymphoid tumors, EC50 (μM) DND-41): 0.129 µM
- EC50 ([2]; MV4-11, MV-4-11 cell line, read-out: Haematopoietic & Lymphoid tumors, EC50 (μM) MV-4-11): 0.07 µM
- EC50 ([2]; Rec1, REC-1 cell line, read-out: Haematopoietic & Lymphoid tumors, EC50 (μM) REC-1): 0.453 µM
- EC50 ([2]; SU-DHL-4, SUDHL4 cell line, read-out: Haematopoietic & Lymphoid tumors, EC50 (μM) SUDHL4): 0.14 µM
- EC50 ([2]; HL-60 cell line, read-out: Haematopoietic & Lymphoid tumors, EC50 (μM) HL-60): 0.769 µM
- EC50 ([2]; JM1 cell line, read-out: Haematopoietic & Lymphoid tumors, EC50 (μM) JM1): 0.075 µM
- EC50 ([2]; JURKAT, Clone E6-1 cell line, read-out: Haematopoietic & Lymphoid tumors, EC50 (μM) JURKAT, Clone E6-1): 0.466 µM
- EC50 ([2]; JeKo-1 cell line, read-out: Haematopoietic & Lymphoid tumors, EC50 (μM) JeKo-1): 0.048 µM
- EC50 ([2]; KASUMI-1 cell line, read-out: Haematopoietic & Lymphoid tumors, EC50 (μM) KASUMI-1): 0.25 µM
- EC50 ([2]; Loucy cell line, read-out: Haematopoietic & Lymphoid tumors, EC50 (μM) Loucy): 0.136 µM
- EC50 ([2]; MOLT-4 cell line, read-out: Haematopoietic & Lymphoid tumors, EC50 (μM) MOLT-4): 0.404 µM
- EC50 ([2]; TF-1 cell line, read-out: Haematopoietic & Lymphoid tumors, EC50 (μM) TF-1): 0.861 µM
- EC50 ([2]; TOLEDO cell line, read-out: Haematopoietic & Lymphoid tumors, EC50 (μM) TOLEDO): 0.077 µM
- EC50 ([3]; SNU-398, SNU398 cell line, read-out: Liver cancer, EC50 SNU398): 57 nM
- EC50 ([3]; HEPG2 cell line, read-out: Liver cancer, EC50 HEPG2): 371 nM
- EC50 ([3]; PLC/PRF/5 cell line, read-out: Liver cancer, EC50 PLC/PRF/5): 1820 nM
- EC50 ([4]; A-427, A427 cell line, read-out: Lung cancer, EC50 (μM) A427): 0.14 µM
- EC50 ([4]; HCC78, HCC-78 cell line, read-out: Lung cancer, EC50 (μM) HCC-78): 0.666 µM
- EC50 ([4]; NCI-H460 cell line, read-out: Lung cancer, EC50 (μM) NCI-H460): 2.64 µM
- EC50 ([4]; NCI-H522 cell line, read-out: Lung cancer, EC50 (μM) NCI-H522): 0.157 µM
- EC50 ([5]; PA-1, PA1 cell line, read-out: Ovarian cancer, EC50 (μM) PA1): 0.403 µM
- EC50 ([5]; TOV112D, TOV-112D cell line, read-out: Ovarian cancer, EC50 (μM) TOV-112D): 0.192 µM
- EC50 ([5]; OV-90 cell line, read-out: Ovarian cancer, EC50 (μM) OV-90): 0.567 µM
- EC50 ([5]; OVCAR-3 cell line, read-out: Ovarian cancer, EC50 (μM) OVCAR-3): 0.179 µM
- EC50 ([6]; BXPC-3, BxPC3 cell line, read-out: Pancreatic cancer, EC50 BxPC3): 770 nM
- EC50 ([6]; CAPAN-1, Capan1 cell line, read-out: Pancreatic cancer, EC50 Capan1): 761 nM
- EC50 ([6]; Capan-2, Capan2 cell line, read-out: Pancreatic cancer, EC50 Capan2): 540 nM
- EC50 ([6]; MIA PaCa-2 cell line, read-out: Pancreatic cancer, EC50 MIA PaCa-2): 112 nM
- EC50 ([6]; PANC 05.04 cell line, read-out: Pancreatic cancer, EC50 PANC 05.04): 791 nM
- EC50 ([6]; PANC-1 cell line, read-out: Pancreatic cancer, EC50 PANC-1): 1780 nM
- EC50 ([6]; UPAFII cell line, read-out: Pancreatic cancer, EC50 UPAFII): 357 nM
- EC50 ([7]; DU-145, read-out: Prostate cancer EC50 Du-145): 459 nM
- EC50 ([7]; PC-3, PC3 cell line, inhibition of cancer cell proliferation, read-out: Prostate cancer EC50 PC3): 322 nM
- EC50 ([7]; 22Rv1 cell line, inhibition of cancer cell proliferation, read-out: Prostate cancer EC50 22Rv1): 283 nM
- EC50 ([7]; LNCap clone FGC cell line, inhibition of cancer cell proliferation, read-out: Prostate cancer EC50 LNCap clone FGC): 965 nM
- EC50 ([7]; VCaP (Sigma) cell line, inhibition of cancer cell proliferation, read-out: Prostate cancer EC50 VCaP (Sigma)): 574 nM
- EC50 (CLK3): 17.6 nM
Compound: O=C(Nc1cncc(-c2ccc3[nH]nc(-c4cc5cnccc5[nH]4)c3c2)c1)C1CCCCC1 [Compound 47]
- EC50 (all 50 cell lines): 516 nM
